The text below walks through data of patent US20240254138A1, “TRICYCLIC PYRIMIDINES AS CYCLIN-DEPENDENT KINASE 7 (CDK7) INHIBITORS” (JANSSEN PHARMACEUTICA NV, priority 2021, published 2024).

For assay [1], the system named is RNA Polymerase II Serine 5 phosphorylation in A549 cells overexpressing CDK7-mutant (C312S). In words: Imaging-based cellular RNA PolII Ser5 phosphorylation assay in A549 cells overexpressing CDK7-mutant (C312S). The format is cell-based, human. The settings on record: RNA PolII Ser5 phosphorylation, averaged over all measurements; for IC50: Homo sapiens, A549, A549 cells overexpressing CDK7-mutant (C312S), read-out: CDK7_A549 mutant hCDK7(pIC50) (converted); for CDK7_A549 mutant hCDK7(pIC50): A549 cells overexpressing CDK7-mutant (C312S). The text has this:
(§1) To evaluate inhibition of CDK7 kinase activity, a 384-well automated imaging assay was used. This assay detects Serine 5 phosphorylation on a unique heptapeptide sequence in the C-terminal domain of Rpb1 subunit of RNA polymerase II, the downstream substrate of CDK7. This heptapeptide sequence is repeated up to 52 times in the CTD of Rpb1.
(§2) A549 adenocarcinoma human alveolar basal epithelial cells (ATCC, CCL-185), rabbit Phospho-Rpb1 CTD (Ser5) antibody (D9N51 (Cell Signaling Technology)), DMEM (Sigma), Fetal Bovine Serum (Biowest), L-glutamine (Sigma), Penicillin/Streptomycin (Life Technologies), Sodium Pyruvate (Sigma), Hepes (Sigma), poly-D-lysine coated μclear 384 black plates (Greiner), formaldehyde (PolySciences), D-PBS (Sigma), Methanol (Sigma), Alexa Fluor 488 goat anti rabbit IgG secondary antibody (Life Technologies), HCS CellMask™ Deep Red stain (Life Technologies), Hoechst 33258 (Invitrogen).
(§3) RNA Polymerase II Serine 5 phosphorylation was detected using a specific rabbit Phospho-Rpb1 CTD (Ser5) antibody. A549 adenocarcinoma human alveolar basal epithelial cells were seeded in 20 μl medium (DMEM supplemented with 1% Fetal Bovine Serum (heat inactivated 30′ 56° C.), 2 mM L-glutamine, 50 U/ml penicillin 50 μg/ml streptomycin, 1 mM sodium pyruvate and 50 mM hepes) at 1000 cells/well and cultured in poly-D-lysine coated μclear 384 black plates for 20 hours at 37° C. and 5% CO2.
(§4) After incubation cells were challenged with compound for 3 hours at 37° C. and 5% CO2. DMSO was used as high control and as low control 10 μM of the following reference compound was used:
(§5) 40 nl of test compounds and controls were spotted in cell plates using Echo Liquid Handler (Echo 550, Labcyte). Incubation was followed by 20 minutes fixation with 20 μl 10% formaldehyde at room temperature. Medium/formaldehyde solution was removed, plates were washed 3 times with 30 μl D-PBS (w/o Ca^2+ and Ma^2+) and permeabilization was done by adding 20 μl ice cold methanol for 20 minutes. Cells were washed again 3 times with 30 μl D-PBS and 20 μl blocking buffer (25 ml fetal bovine serum in 500 ml D-PBS) was added for 1 hour.
(§6) After removing blocking buffer 20 μl 1/1000 primary antibody rabbit Phospho-Rpb1 CTD (Ser5) antibody was added which binds to the phosphorylated Serine5 of the heptapeptide sequences in the CTD of Rpb1. Primary antibody was removed, and plates were washed 3 times with 30 μl D-PBS followed by addition of 20 μl 1/2000 Alexa Fluor 488 goat anti rabbit IgG secondary antibody for final detection of Phospho-Rpb1 CTD (Ser5) together with 1/5000 HCS CellMask™ Deep Red stain for membrane staining and 1/5000 Hoechst 33258 for nucleus staining. Last, plates were washed 2 times with 30 μl D-PBS and wells were filled with 40 μL D-PBS, plates were sealed (Thermowell sealing tape) and stored at 4° C. until reading. Plates were read with Opera Phenix (Perkin Elmer) with 10× air objective. Data were calculated and analyzed in Phaedra.
(§7) IC50 values were calculated using the following formula: […]
(§8) Average value of all HC's and all LC's are used for normalizations.
(§9) A best-fit curve is fitted by a minimum sum of squares method to the plot of % Control vs. compound concentration. From this an IC50 value can be obtained. An estimate of the slope of the plot in terms of the Hill coefficient is also obtained.
In parallel this assay was performed in A549 cells overexpressing CDK7-mutant (C312S) to evaluate the effect of the covalent bond on potency and to screen for potential off-target effects. Mutation of Cysteine to Serine (C312S), a less nucleophilic amino acid, prevents CDK7 inhibitors from covalently binding to CDK7 and from inhibiting CDK7 activity in an irreversible manner. A stably transduced A549 cell pool was generated that overexpresses CDK7 mutant (C312S), but also expresses endogenous CDK7-WT. Covalent binders targeting the cysteine at position 312 will show a shift in potency in A549 cells overexpressing mutant C312S CDK7.

Assay [2] deals with RNA Polymerase II Serine 5 phosphorylation (Rpb1 CTD, downstream substrate of CDK7) in A549 cells. The assay can be described thus: Imaging-based cellular RNA PolII Ser5 phosphorylation assay in A549 cells. It is filed as cell-based, human. The settings on record: wild-type CDK7, RNA PolII Ser5 phosphorylation, averaged over all measurements; for IC50: Homo sapiens, A549, A549 cells, read-out: CDK7_A549 Wild-type CDK7 (pIC50) (converted); for CDK7_A549 Wild-type CDK7 (pIC50): A549 cells.
Excerpt: as §1, §2, §3, §4, §5, §6, §7, §8, §9

Turning to `CC#CC(=O)N1CC(N2CC[C@H](c3cc4c(c(C)n3)O[C@H](C)c3c(N5CCOCC5)ccnc3N4)C2)C1` (single isomer, unassigned) [Compound 397], the IC50 in assay [1] and in assay [2] was over 10 µM throughout.

As to `CC#CC(=O)N1CC(N2CCC(c3cc4c(c(C)n3)O[C@H](C)c3c(C5CCOCC5)ccnc3N4)CC2)C1` (single isomer, unassigned) [Compound 405], the values for the IC50 in assay [1] and in assay [2] were over 10 µM and 0.0891 µM, respectively.

Take `C=CC(=O)N1CCC(N2CC(c3cc4c(c(C)n3)O[C@H](C)c3c(N5CCOCC5)ccnc3N4)C2)CC1` (single isomer, unassigned) [Compound 423]: the IC50 in assay [1] was 5.89 µM; in assay [2] it was 0.0589 µM.

`C=CC(=O)N1CCC(N2CC(c3cc4c(c(C)n3)O[C@@H](C)c3c(N5CCOCC5)ccnc3N4)C2)CC1` (single isomer, unassigned) [Compound 430]: the IC50 was over 10 µM in assay [1] and 0.933 µM in assay [2].

With `CC#CC(=O)N1CC(n2cc(-c3cc4c(c(C)n3)O[C@H](C)c3c(N5CCOCC5)ccnc3N4)cn2)C1` (single isomer, unassigned) [Compound 434], the values for the IC50 in assay [1] and in assay [2] were over 10 µM and 4.57 µM, respectively.

`CC#CC(=O)N1CCC(N2CC[C@H](c3cc4c(c(C)n3)OCc3c(N5CCOCC5)ccnc3N4)C2)CC1` (single isomer, unassigned) [Compound 438]: the IC50 was 3.09 µM in assay [1] and 0.191 µM in assay [2].

Regarding `CC#CC(=O)N1CC(N2CC(c3cc4c(c(C)n3)O[C@@H](C)c3c(N5CCOCC5)ccnc3N4)C2)C1` (single isomer, unassigned) [Compound 441], the “CDK7_A549 mutant hCDK7(pIC50)” value in assay [1] is recorded as under 5. Also, the “CDK7_A549 Wild-type CDK7 (pIC50)” value in assay [2] was under 5.

For the compound `CC#CC(=O)N1CC(N2CC[C@@H](c3cc4c(c(C)n3)OCc3c(N5CCOCC5)ccnc3N4)N(C)CC2)C1` (single isomer, unassigned) [Compound 446], the figures for the IC50 in assay [1] and in assay [2] were over 10 µM and 0.794 µM, respectively.

For `CC#CC(=O)N1CC(N2CC[C@H](c3cc4c(c(C)n3)OCc3c(N5CCOCC5)ccnc3N4)N(C)CC2)C1` (single isomer, unassigned) [Compound 448], the IC50 in assay [1] was 8.32 µM; in assay [2], 0.209 µM.

In the case of `CC#CC(=O)N1CC(n2cc(-c3cc(C#N)c4c(c3)Nc3nccc(N5CCOCC5)c3[C@@H](C)O4)cn2)C1` (single isomer, unassigned) [Compound 450], the IC50 was over 10 µM in assay [1] and 1.78 µM in assay [2].

Consider `C#Cc1cc(C2CN([C@@H]3CCN(C(=O)C=C)C3)C2)cc2c1OCc1c(-c3cnn(C)c3)ccnc1N2` (single isomer, unassigned) [Compound 473], for which the values for the IC50 in assay [1] and in assay [2] were over 10 µM and 0.166 µM, respectively.

Regarding `C=CC(=O)N1CC[C@@H](N2CC(c3cc4c(c(C#N)n3)OCc3c(N5CCOCC5)ccnc3N4)C2)C1` (single isomer, unassigned) [Compound 474], the IC50 in assay [1] is over 10 µM; in assay [2] it was 0.575 µM.

Take `CC#CC(=O)N1CC(N2CCC(c3cc4c(c(C#N)n3)O[C@H](C)c3c(N5CCOCC5)ccnc3N4)CC2)C1` (single isomer, unassigned) [Compound 481]: the IC50 in assay [1] is over 10 µM; in assay [2] it was 3.02 µM.

As for `CC#CC(=O)N1CC(N2CCC(c3cc4c(c(C#N)n3)O[C@@H](C)c3c(N5CCOCC5)ccnc3N4)CC2)C1` (single isomer, unassigned) [Compound 485], the IC50 in assay [1] was over 10 µM; in assay [2] it was 0.12 µM.

For the compound `C#Cc1cc(C2CN([C@H]3CCN(C(=O)C=C)C3)C2)cc2c1OCc1c(-c3cnn(C)c3)ccnc1N2` (single isomer, unassigned) [Compound 492], the results for the IC50 in assay [1] and in assay [2] were 9.55 µM and 0.126 µM, respectively.

As for `CC#CC(=O)N1CC[C@H](N2CC(c3cc4c(c(C)n3)O[C@@H](C)c3c(N5CCOCC5)ccnc3N4)C2)C1` (single isomer, unassigned) [Compound 512], the IC50 in assay [1] was over 10 µM. The “CDK7_A549 Wild-type CDK7 (pIC50)” value in assay [2] worked out at 7.56.

For the compound `CC#CC(=O)N1CC[C@@H](N2CC(c3cc4c(c(C)n3)O[C@H](C)c3c(N5CCOCC5)ccnc3N4)C2)C1` (single isomer, unassigned) [Compound 513], in assay [1], the IC50 is over 10 µM. Moreover, in assay [2], the “CDK7_A549 Wild-type CDK7 (pIC50)” value was found to be 6.36.

As for `CC#CC(=O)N1CC[C@@H](N2CC(c3cc4c(c(C)n3)O[C@@H](C)c3c(N5CCOCC5)ccnc3N4)C2)C1` (single isomer, unassigned) [Compound 515], the figures for the IC50 in assay [1] and in assay [2] were 8.91 µM and about 0.0115 µM, respectively.

As to `CC#CC(=O)N1CC[C@H](N2CC(c3cc4c(c(C)n3)O[C@H](C)c3c(N5CCOCC5)ccnc3N4)C2)C1` (single isomer, unassigned) [Compound 516], the IC50 in assay [1] was over 10 µM. Further, the “CDK7_A549 Wild-type CDK7 (pIC50)” value in assay [2] is listed as 5.68.

On to `CC#CC(=O)N1CC(N2CCC(c3cc4c(c(C)n3)O[C@H](C)c3c(N5CCOCC5)ccnc3N4)CC2)C1` (single isomer, unassigned) [Compound 524], for which the “CDK7_A549 mutant hCDK7(pIC50)” value in assay [1] is given as under 5. In addition, in assay [2], the “CDK7_A549 Wild-type CDK7 (pIC50)” value was 5.03.

`CC#CC(=O)N1CC[C@H](N2CC(c3cc4c(c(C)n3)O[C@H](C)c3c(N5CCOCC5)ccnc3N4)C2)C1` (single isomer, unassigned) [Compound 530]: the “CDK7_A549 mutant hCDK7(pIC50)” value in assay [1] is listed as under 5. Further, the “CDK7_A549 Wild-type CDK7 (pIC50)” value in assay [2] is under 5.

Turning to `CC#CC(=O)N1CC[C@@H](N2CC(c3cc4c(c(C)n3)O[C@H](C)c3c(N5CCOCC5)ccnc3N4)C2)C1` (single isomer, unassigned) [Compound 531], the “CDK7_A549 mutant hCDK7(pIC50)” value in assay [1] was under 5. For the same compound, the “CDK7_A549 Wild-type CDK7 (pIC50)” value in assay [2] was under 5.

`CC#CC(=O)N1CC[C@H](N2CC(c3cc4c(c(C)n3)O[C@@H](C)c3c(N5CCOCC5)ccnc3N4)C2)C1` (single isomer, unassigned) [Compound 533]: the “CDK7_A549 mutant hCDK7(pIC50)” value in assay [1] is reported as under 5. Also, the “CDK7_A549 Wild-type CDK7 (pIC50)” value in assay [2] came to 6.33.

As for `CC#CC(=O)N1CC(N2CCC(c3cc4c(c(C)n3)O[C@@H](C)c3c(-c5cnn(C)c5)ccnc3N4)CC2)C1` (single isomer, unassigned) [Compound 534], the IC50 in assay [1] was over 10 µM; in assay [2] it was about 9.55 µM.

Consider `CC#CC(=O)N1CCC(N2CCC(c3cc4c(c(C)n3)O[C@@H](C)c3c(N5CCOCC5)ccnc3N4)CC2)C1` (single isomer, unassigned) [Compound 535], for which the IC50 is about 10 µM in assay [1] and 0.0631 µM in assay [2].

With `CC#CC(=O)N1CCC(N2CC(c3cc4c(c(C#N)n3)O[C@H](C)c3c(N5CCOCC5)ccnc3N4)C2)CC1` (single isomer, unassigned) [Compound 544], the results for the IC50 in assay [1] and in assay [2] were over 10 µM and 2.95 µM, respectively.

With `CC#CC(=O)N1CCC(N2CC(c3cc4c(c(C#N)n3)O[C@@H](C)c3c(N5CCOCC5)ccnc3N4)C2)CC1` (single isomer, unassigned) [Compound 545], the figures for the IC50 in assay [1] and in assay [2] were 2.82 µM and 0.117 µM, respectively.
